{"source": "patent US10150760B2", "about": "“Compounds for use in preparing heterocyclic triazole agonists of the APJ receptor” (AMGEN INC., priority 2016, dated 2018)", "molecular_target": "human APJ receptor (Homo sapiens (Human), UniProt P35414)", "sequence (P35414 whole entry)": "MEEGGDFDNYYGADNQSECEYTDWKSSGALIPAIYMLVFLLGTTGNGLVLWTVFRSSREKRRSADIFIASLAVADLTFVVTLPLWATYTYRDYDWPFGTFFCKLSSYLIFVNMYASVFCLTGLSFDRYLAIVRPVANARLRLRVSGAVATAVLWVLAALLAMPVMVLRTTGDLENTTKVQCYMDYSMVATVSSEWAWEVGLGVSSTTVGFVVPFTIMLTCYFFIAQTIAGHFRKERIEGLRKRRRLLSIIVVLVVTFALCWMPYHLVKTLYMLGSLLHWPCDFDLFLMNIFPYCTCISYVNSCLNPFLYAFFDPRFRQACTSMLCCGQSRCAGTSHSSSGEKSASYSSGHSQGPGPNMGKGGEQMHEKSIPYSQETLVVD", "test": "[35S]GTPγS binding assay on membranes from CHO cells stably expressing human APJ receptor", "format": "biochemical", "details": "read-out: Activity hAPJ SPA EC50 IP", "method": "The human APJ receptor was cloned by polymerase chain reaction and the gene encoding the receptor was subcloned in pFLAG-CMV™-3 expression vector (Sigma, Saint Louis, Mo. USA) in-house at Amgen. A GTPγS binding assay was performed on membranes prepared from CHO cells stably expressing human APJ receptor. The optimum experimental conditions for the concentrations of GDP, MgCl2, and NaCl in the assay buffer were initially determined. The assay was performed in assay buffer [20 mM HEPES, pH 7.5, 5 mM MgCl2, and 0.1% (w/v) BSA with 200 mM NaCl, 3 μM GDP] and membranes expressing human APJ receptor/well along with WGA PS beads. The reaction was initiated by addition of 0.2 nM [^35S]GTPγS (Perkin Elmer Life and Analytical Sciences, Waltham USA) in the absence or presence of various ligands and incubated at RT for 90 min. Nonspecific binding was determined in the presence of 100 μM GTPγS and was always less than 0.2% of total binding. All the results presented are means of several independent experiments and analyzed by non-linear regression methods using commercially available program Prism (GraphPad, San Diego, Calif.) to obtain EC50 detailed in Table 38."}
{"compound": "CO[C@H](c1ncc(Cl)cn1)[C@H](C)S(=O)(=O)Nc1nnc([C@@H]2CC[C@H](C)O2)n1Cc1ccon1", "note": "(single isomer, unassigned) [Example 403.0, (1R,2S)-1-(5-chloro-2-pyrimidinyl)-1-methoxy-N-(5-((2S,5S)-5-methyltetrahydro-2-furanyl)-4-(1,2-oxazol-3-ylmethyl)-4H-1,2,4-triazol-3-yl)-2-propanesulfonamide or (1R,2S)-1-(5-chloro-2-pyrimidinyl)-1-methoxy-N-(5-((2R,5R)-5-methyltetrahydro-2-furanyl)-4-(1,2-oxazol-3-ylmethyl)-4H-1,2,4-triazol-3-yl)-2-propanesulfonamide]", "values": [{"measurement": "EC50", "value": 280, "unit": "nM"}]}
{"compound": "(1S,2S)-N-(4-(4,6-dimethoxypyrimidin-5-yl)-5-((R)-5,5-dimethyltetrahydrofuran-3-yl)-4H-1,2,4-triazol-3-yl)-1-isopropoxy-1-(5-methylpyrimidin-2-yl)propane-2-sulfonamide or (1S,2S)-N-(4-(4,6-dimethoxypyrimidin-5-yl)-5-((S)-5,5-dimethyltetrahydrofuran-3-yl)-4H-1,2,4-triazol-3-yl)-1-isopropoxy-1-(5-methylpyrimidin-2-yl)propane-2-sulfonamide [Example 313.0]", "values": [{"measurement": "EC50", "value": 530, "unit": "nM"}]}
{"compound": "COc1cccc(OC)c1-n1c(NS(=O)(=O)[C@@H](C)[C@H](C)c2ncc(Cl)cn2)nnc1[C@@H]1COC(C)(C)C1", "note": "(single isomer, unassigned) [Example 393.0, (2S,3R)-3-(5-chloro-2-pyrimidinyl)-N-(4-(2,6-dimethoxyphenyl)-5-((3R)-5,5-dimethyltetrahydro-3-furanyl)-4H-1,2,4-triazol-3-yl)-2-butanesulfonamide or (2S,3R)-3-(5-chloro-2-pyrimidinyl)-N-(4-(2,6-dimethoxyphenyl)-5-((3S)-5,5-dimethyltetrahydro-3-furanyl)-4H-1,2,4-triazol-3-yl)-2-butanesulfonamide]", "values": [{"measurement": "EC50", "value": 18, "unit": "nM"}]}
{"compound": "(1R,2S)-1-(5-chloro-2-pyrimidinyl)-N-(4-(1,3-dimethoxy-2-propanyl)-5-((2S,5S)-5-methyltetrahydro-2-furanyl)-4H-1,2,4-triazol-3-yl)-1-methoxy-2-propanesulfonamide or (1R,2S)-1-(5-chloro-2-pyrimidinyl)-N-(4-(1,3-dimethoxy-2-propanyl)-5-((2R,5R)-5-methyltetrahydro-2-furanyl)-4H-1,2,4-triazol-3-yl)-1-methoxy-2-propanesulfonamide [Example 253.0]", "values": [{"measurement": "EC50", "value": 6.3, "unit": "nM"}]}
{"compound": "(2S,3R)-3-(5-Chloropyrimidin-2-yl)-N-(4-(3,5-dibromo-2,6-dimethoxyphenyl)-5-((R)-tetrahydrofuran-3-yl)-4H-1,2,4-triazol-3-yl)butane-2-sulfonamide or (2S,3R)-3-(5-chloropyrimidin-2-yl)-N-(4-(3,5-dibromo-2,6-dimethoxyphenyl)-5-((S)-tetrahydrofuran-3-yl)-4H-1,2,4-triazol-3-yl)butane-2-sulfonamide [Example 254.0]", "values": [{"measurement": "EC50", "value": 310, "unit": "nM"}]}
{"compound": "CO[C@H](c1ncc(Cl)cn1)[C@H](C)S(=O)(=O)Nc1nnc([C@@H]2CC[C@H](C)O2)n1Cc1ccon1", "note": "(single isomer, unassigned) [Example 404.0, (1R,2S)-1-(5-chloro-2-pyrimidinyl)-1-methoxy-N-(5-((2S,5S)-5-methyltetrahydro-2-furanyl)-4-(1,2-oxazol-3-ylmethyl)-4H-1,2,4-triazol-3-yl)-2-propanesulfonamide or (1R,2S)-1-(5-chloro-2-pyrimidinyl)-1-methoxy-N-(5-((2R,5R)-5-methyltetrahydro-2-furanyl)-4-(1,2-oxazol-3-ylmethyl)-4H-1,2,4-triazol-3-yl)-2-propanesulfonamide]", "values": [{"measurement": "EC50", "value": 81, "unit": "nM"}]}
{"compound": "COc1cccc(OC)c1-n1c(NS(=O)(=O)[C@@H](C)[C@H](C)c2ncc(Cl)cn2)nnc1[C@H]1CCC(=O)N1", "note": "(single isomer, unassigned) [Example 343.0, (2S,3R)-3-(5-chloropyrimidin-2-yl)-N-(4-(2,6-dimethoxyphenyl)-5-((R)-5-oxopyrrolidin-2-yl)-4H-1,2,4-triazol-3-yl)butane-2-sulfonamide or (2S,3R)-3-(5-chloropyrimidin-2-yl)-N-(4-(2,6-dimethoxyphenyl)-5-((S)-5-oxopyrrolidin-2-yl)-4H-1,2,4-triazol-3-yl)butane-2-sulfonamide]", "values": [{"measurement": "EC50", "value": 730, "unit": "nM"}]}
{"compound": "(1S,2S)-1-isopropoxy-1-(5-methylpyrazin-2-yl)-N-(4-(tetrahydro-2H-pyran-4-yl)-5-((R)-tetrahydrofuran-2-yl)-4H-1,2,4-triazol-3-yl)propane-2-sulfonamide or (1S,2S)-1-isopropoxy-1-(5-methylpyrazin-2-yl)-N-(4-(tetrahydro-2H-pyran-4-yl)-5-((S)-tetrahydrofuran-2-yl)-4H-1,2,4-triazol-3-yl)propane-2-sulfonamide [Example 261.0]", "values": [{"measurement": "EC50", "value": 150, "unit": "nM"}]}
{"compound": "((2S,3R)-N-(4-(2,6-dimethoxyphenyl)-5-((R)-1,4-dioxan-2-yl)-4H-1,2,4-triazol-3-yl)-3-(5-methylpyrimidin-2-yl)butane-2-sulfonamide or (2S,3R)-N-(4-(2,6-dimethoxyphenyl)-5-((S)-1,4-dioxan-2-yl)-4H-1,2,4-triazol-3-yl)-3-(5-methylpyrimidin-2-yl)butane-2-sulfonamide [Example 206.0]", "values": [{"measurement": "EC50", "value": 35, "unit": "nM"}]}
{"compound": "COc1cccc(OC)c1-n1c(NS(=O)(=O)[C@@H](C)[C@H](C)c2ncc(F)cn2)nnc1[C@H]1CCC(C)(C)O1", "note": "(single isomer, unassigned) [Example 333.0, (2S,3R)-N-(4-(2,6-dimethoxyphenyl)-5-((R)-5,5-dimethyltetrahydrofuran-2-yl)-4H-1,2,4-triazol-3-yl)-3-(5-fluoropyrimidin-2-yl)butane-2-sulfonamide or (2S,3R)-N-(4-(2,6-dimethoxyphenyl)-5-((S)-5,5-dimethyltetrahydrofuran-2-yl)-4H-1,2,4-triazol-3-yl)-3-(5-fluoropyrimidin-2-yl)butane-2-sulfonamide]", "values": [{"measurement": "EC50", "value": 190, "unit": "nM"}]}
{"compound": "(2S,3R)-N-(4-(2,6-bis((trideutero)methyloxy)phenyl)-5-((3R)-tetrahydro-3-furanyl)-4H-1,2,4-triazol-3-yl)-3-(5-chloro-2-pyrimidinyl)-2-butanesulfonamide or (2S,3R)-N-(4-(2,6-bis((trideutero)methyloxy)phenyl)-5-((3S)-tetrahydro-3-furanyl)-4H-1,2,4-triazol-3-yl)-3-(5-chloro-2-pyrimidinyl)-2-butanesulfonamide [Example 391.0]", "values": [{"measurement": "EC50", "value": 15, "unit": "nM"}]}
{"compound": "Cc1cnc([C@@H](C)[C@H](C)S(=O)(=O)Nc2nnc([C@@H]3CCCO3)n2-c2c(F)cncc2F)nc1", "note": "[Example 25.0, (2S,3R)-N-(4-(3,5-difluoro-4-pyridinyl)-5-((2S)-tetrahydro-2-furanyl)-4H-1,2,4-triazol-3-yl)-3-(5-methyl-2-pyrimidinyl)-2-butanesulfonamide]", "values": [{"measurement": "EC50", "value": 130, "unit": "nM"}]}
{"compound": "(1R,2S)-1-(5-chloro-2-pyrimidinyl)-N-(4-(1,3-dimethoxy-2-propanyl)-5-((2S,5S)-5-methyltetrahydro-2-furanyl)-4H-1,2,4-triazol-3-yl)-1-methoxy-2-propanesulfonamide or (1R,2S)-1-(5-chloro-2-pyrimidinyl)-N-(4-(1,3-dimethoxy-2-propanyl)-5-((2R,5R)-5-methyltetrahydro-2-furanyl)-4H-1,2,4-triazol-3-yl)-1-methoxy-2-propanesulfonamide [Example 252.0]", "values": [{"measurement": "EC50", "value": 250, "unit": "nM"}]}
{"compound": "CO[C@H](c1ncc(Cl)cn1)[C@H](C)S(=O)(=O)Nc1nnc([C@H]2CCCOC2)n1C1(C)CC1", "note": "(single isomer, unassigned) [Example 127.0, (1R,2S)-1-(5-chloropyrimidin-2-yl)-1-methoxy-N-(4-(1-methylcyclopropyl)-5-((R)-tetrahydro-2H-pyran-3-yl)-4H-1,2,4-triazol-3-yl)propane-2-sulfonamide or (1R,2S)-1-(5-chloropyrimidin-2-yl)-1-methoxy-N-(4-(1-methylcyclopropyl)-5-((S)-tetrahydro-2H-pyran-3-yl)-4H-1,2,4-triazol-3-yl)propane-2-sulfonamide]", "values": [{"measurement": "EC50", "value": 7.7, "unit": "nM"}]}
{"compound": "COc1cccc(OC)c1-n1c(NS(=O)(=O)[C@@H](C)[C@H](C)c2ncc(C)cn2)nnc1[C@H]1CCCCO1", "note": "(single isomer, unassigned) [Example 86.0, (2S,3R)-N-(4-(2,6-dimethoxyphenyl)-5-((S)-tetrahydro-2H-pyran-2-yl)-4H-1,2,4-triazol-3-yl)-3-(5-methylpyrimidin-2-yl)butane-2-sulfonamide or (2S,3R)-N-(4-(2,6-dimethoxyphenyl)-5-((R)-tetrahydro-2H-pyran-2-yl)-4H-1,2,4-triazol-3-yl)-3-(5-methylpyrimidin-2-yl)butane-2-sulfonamide]", "values": [{"measurement": "EC50", "value": 2.1, "unit": "nM"}]}
{"compound": "(1R,2S)-1-(5-chloropyrimidin-2-yl)-N-(4-(4,6-dimethoxypyrimidin-5-yl)-5-((R)-5,5-dimethyltetrahydrofuran-3-yl)-4H-1,2,4-triazol-3-yl)-1-methoxypropane-2-sulfonamide or (1R,2S)-1-(5-chloropyrimidin-2-yl)-N-(4-(4,6-dimethoxypyrimidin-5-yl)-5-((S)-5,5-dimethyltetrahydrofuran-3-yl)-4H-1,2,4-triazol-3-yl)-1-methoxypropane-2-sulfonamide [Example 316.0]", "values": [{"measurement": "EC50", "value": 26, "unit": "nM"}]}
